Measurements from patent US20250375454A1, “METHODS FOR TREATING HEPATOCELLULAR CARCINOMA” (THE HONG KONG POLYTECHNIC UNIVERSITY, priority 2024, published 2025).
“Also recorded” adds a separate entry of the source.

Tests used:
Huh7 cells = assay: MTT cytotoxicity assay, Huh7; format: cell-based
Method: (§1) Huh7 and PLC/PRF/5 (CRL-8024™) cells were purchased from Thermo Fisher Scientific and the ATCC, respectively. MIHA was kindly provided by Dr. J. R. Chowdhury, Albert Einstein College of Medicine, New York. The cell lines were cultured in Dulbecco's modified Eagle medium (DMEM, Gibco, MA, USA) supplemented with 10% fetal bovine serum (FBS, BI, MA, USA) and 1× penicillin-streptomycin solution (Solarbio) at 37° C. in a humid, 5% CO2 atmosphere.
(§2) Huh7 and PLC/PRF/5 cells at a density of 5×10^3 cells/well were cultured in 96-well plates and incubated at 37° C. in 5% CO2. Both cell lines were treated with different concentrations of benzoxazinone derivatives (ZAK-I-57, ZAK-I-64, and ZAK-I-68). Both cell lines were incubated with ZAK-I-57 for 24 h and for 48 h with ZAK-I-64 and ZAK-I-68. MTT (3-[4,5-dimethylthiazol-2-yl]-2,5-diphenyltetrazolium bromide) solution was then added to each well and incubated for 3 h in a CO2 atmosphere at 37° C. Insoluble formazan crystals were dissolved by adding 100 μL of dimethyl sulfoxide (DMSO) to each well, followed by orbital agitation for 10 min. A minimum of three biological replicates were analyzed using a plate reader to determine IC50. The same experiment was performed with MIHA hepatocyte cells to evaluate the selectivity cytotoxicity of ZAK-I-57.

[1] = MTT cytotoxicity assay, MIHA normal hepatocytes; format: cell-based; conditions: human, MIHA normal hepatocyte cells, all concentrations, read-out: cell viability
Method: as §1, §2

MIHA cells = assay: MTT cytotoxicity assay, MIHA normal hepatocytes; format: cell-based; conditions: Hepatocyte
Method: as §1, §2

EGFR = assay: Western blot of EGFR expression in Huh7 cells; format: cell-based; conditions: Huh7, 48 h treatment
Method: (§3) The Huh7 cells and tumor tissues were lysed on ice using the lysis buffer. Protein concentration was quantified using Bradford assay (Bio-Rad, Hercules, CA, USA). Equivalent amounts of protein (25-50 μg) were loaded onto 10% sodium dodecyl sulfate-polyacrylamide gel electrophoresis (SDS-PAGE) and transferred to polyvinylidene fluoride (PVDF) membranes. Membranes were blocked with 5% non-fat milk in Tris-buffered saline Tween 20 (TBST) for an hour. The blots were incubated with primary antibodies (EGFR (4267S, Cell signaling technology, MA, USA), c-Myc (5605S, Cell signaling technology, MA, USA), Bax (2772S, Cell signaling technology, MA, USA), Bcl-2 (sc-7382, Santa Cruze, TX, USA), ERBB2 (2165S, Cell signaling technology, MA, USA), and α-tubulin (62204, Invitrogen, MA, USA), 1:1000) at 4° C. overnight. Subsequently, the membranes were washed thrice (15 min each) with TBST solution and incubated for 1 h with secondary horseradish peroxidase-conjugated antibodies (NA934 and NA931, Cytiva, MA, USA, 1:5000). Blots were then detected using an ECL kit and photographed using a ChemiDoc Imaging System (Bio-Rad, MA, USA). The bands were quantified using the ImageJ software (NIH, USA). The intensities of the bands for each protein sample were normalized to those of α-tubulin (internal standard protein). Quantitative data are presented as a fold change of untreated control.

c-Myc = assay: Western blot of c-Myc expression in Huh7 cells; format: cell-based; conditions: Huh7, 48 h treatment
Method: as §3

ERBB2 = assay: Western blot of ERBB2 expression in Huh7 cells; format: cell-based; conditions: Huh7, 48 h treatment
Method: as §3

HCC PDTX mouse model = assay: HCC patient-derived tumor xenograft (PDTX #1) mouse model; format: in vivo, mice
Method: Male BALB/c nude mice (6-8 weeks old) were obtained from the Centralized Animal Facilities at the Hong Kong Polytechnic University. All animals were bred and housed under specific pathogen-free conditions, with access to sterile food and water. Environmental conditions were strictly controlled, with temperature maintained at 23±2° C., relative humidity between 30%-70%, and a 12-hour light/dark cycle. Mice were group-housed in accordance with institutional guidelines for recommended stocking density. The animal experiments were conducted according to institutional guidelines, and the experimental procedures were approved by the PolyU Animal Experimentation Ethics Committee (Ref. No. 19-20/57-ABCT-R-STUDENT).
The procedure for the establishment of PDTX #1 was previously described. Tumor cells from PDTX #1 was inoculated subcutaneously on the back of nude mice. When the tumors reached approximately 1,000 mm^3, mice with the first generation of xenografts (P1) were sacrificed, and the xenografts were isolated and expanded for the second generation (P2). When P2 xenografts reached an average volume of 70 mm^3, mice were subjected to ZAK-I-57 and sorafenib treatment. The development of PDTX was approved by the Institutional Review Board of the University of Hong Kong/Hospital Authority Hong Kong West Cluster (UW 17-056) and informed consents were obtained from patients.
as §3
Tumors were fixed in 4% formalin, embedded in paraffin, and sectioned at […] thickness for IHC staining. Ki-67 primary antibody (ab16667, Abcam, MA, USA) and anti-mouse IgG recombinant secondary antibody (7056S, Cell Signaling Technology, MA, USA) were used for IHC staining. Hemotoxin (Invitrogen, MA, USA) was used to stain nuclei. The number of positively stained cells in Ki-67-stained slides was evaluated using ImageJ software (NIH, MD, USA).
H&E staining was performed on histological sections of organs (heart, spleen, kidney, liver, and lung) to examine the toxicity of ZAK-I-57 in PLC/PRF/5 tumor-bearing and PDTX model mice. Briefly, the histological slides were deparaffinized using 100% xylene (v/v). The slides were then washed several times with ethanol solutions of various concentrations (70-100%, v/v) and immersed in hematoxylin for 5 min, followed by a quick dip in acidic alcohol. Next, the slides were immersed in Scott's tap water for 3 min and in 1% eosin for 30 s. Finally, the slides were dehydrated using ethanol solutions of various concentrations (70%-100%, v/v) and 100% xylene (v/v) and mounted using a mounting medium.

[2] = heart, liver, spleen, lung, kidney, ZAK-I-57 15 and 30 mg/kg, sorafenib 30 mg/kg

O=c1oc(-c2ccc3ccccc3c2)nc2cc([N+](=O)[O-])ccc12 [ZAK-I-57, 2-(naphthalen-2-yl)-7-nitro-4H-3,1-benzoxazin-4-one]
IC50 against HCC cells, compared with sorafenib and artesunate (Huh7 cells; HCC cells (Huh7)): lower than sorafenib and artesunate
cytotoxicity (cell viability) (Huh7 cells; Huh7, ZAK-I-57 24 h, ZAK-I-64 and ZAK-I-68 48 h): concentration-dependent increase in cytotoxicity
viability at 24 h ([1]; 24 h): > 90%
viability at 48 h ([1]; 48 h): > 90%
IC50 (MIHA cells; 24 h): > 100 µM
IC50 (MIHA cells; 48 h): > 100 µM
IC50 (MIHA cells; time not stated): > 100 µM
EGFR expression (EGFR): significant downregulation
c-Myc expression (c-Myc): significant downregulation
ERBB2 expression (ERBB2): significant downregulation
percentage of tumor growth (HCC PDTX mouse model; 15 mg/kg and 30 mg/kg, vs vehicle control): markedly diminished
Bax expression in tumor (western blot) (HCC PDTX mouse model; 30 mg/kg): significantly upregulating
Bcl-2 expression in tumor (western blot) (HCC PDTX mouse model; 30 mg/kg): downregulating
EGFR expression in tumor (western blot) (HCC PDTX mouse model; 30 mg/kg): downregulated
Ki-67 suppression compared with sorafenib (HCC PDTX mouse model; 30 mg/kg): significantly greater Ki-67 suppression than sorafenib
c-Myc expression in tumor (western blot) (HCC PDTX mouse model; 30 mg/kg): downregulated
tumor cell density and necrosis (H&E staining) (HCC PDTX mouse model; 30 mg/kg): substantial decrease in cell density and necrosis
tumor volume reduction compared with sorafenib (HCC PDTX mouse model; 30 mg/kg): outperforming sorafenib
tumor weight (HCC PDTX mouse model; 30 mg/kg): significant reduction; also recorded: outperforming sorafenib
Ki-67 expression in tumor (IHC) (HCC PDTX mouse model; 15 and 30 mg/kg): inhibition of Ki-67 expression
tumor progression (tumor volume) (HCC PDTX mouse model; 15 and 30 mg/kg): significantly inhibited tumor progression in a dose-dependent manner
body weight (HCC PDTX mouse model; ZAK-I-57 15 and 30 mg/kg, sorafenib 30 mg/kg): no significant difference
tumor cellularity (H&E staining) (HCC PDTX mouse model; ZAK-I-57 15 and 30 mg/kg, sorafenib 30 mg/kg, vs vehicle control): marked reduction in tumor cellularity
gross anatomical examination of vital organs (HCC PDTX mouse model; [2]): maintained tissue morphology comparable to the vehicle control
histopathology of vital organs (H&E) (HCC PDTX mouse model; [2]): no histological abnormalities were observed
